{
  "source": "patent US10005762B2",
  "about": "“Pyridine derivatives” (Astellas Pharma Inc., priority 2014, dated 2018)",
  "note": "Marks after values point to notes of the source that are not given here.",
  "data": [
    {"molecular_target": "IRAP (Rattus norvegicus (Rat), UniProt P97629)", "sequence (P97629 whole entry)": "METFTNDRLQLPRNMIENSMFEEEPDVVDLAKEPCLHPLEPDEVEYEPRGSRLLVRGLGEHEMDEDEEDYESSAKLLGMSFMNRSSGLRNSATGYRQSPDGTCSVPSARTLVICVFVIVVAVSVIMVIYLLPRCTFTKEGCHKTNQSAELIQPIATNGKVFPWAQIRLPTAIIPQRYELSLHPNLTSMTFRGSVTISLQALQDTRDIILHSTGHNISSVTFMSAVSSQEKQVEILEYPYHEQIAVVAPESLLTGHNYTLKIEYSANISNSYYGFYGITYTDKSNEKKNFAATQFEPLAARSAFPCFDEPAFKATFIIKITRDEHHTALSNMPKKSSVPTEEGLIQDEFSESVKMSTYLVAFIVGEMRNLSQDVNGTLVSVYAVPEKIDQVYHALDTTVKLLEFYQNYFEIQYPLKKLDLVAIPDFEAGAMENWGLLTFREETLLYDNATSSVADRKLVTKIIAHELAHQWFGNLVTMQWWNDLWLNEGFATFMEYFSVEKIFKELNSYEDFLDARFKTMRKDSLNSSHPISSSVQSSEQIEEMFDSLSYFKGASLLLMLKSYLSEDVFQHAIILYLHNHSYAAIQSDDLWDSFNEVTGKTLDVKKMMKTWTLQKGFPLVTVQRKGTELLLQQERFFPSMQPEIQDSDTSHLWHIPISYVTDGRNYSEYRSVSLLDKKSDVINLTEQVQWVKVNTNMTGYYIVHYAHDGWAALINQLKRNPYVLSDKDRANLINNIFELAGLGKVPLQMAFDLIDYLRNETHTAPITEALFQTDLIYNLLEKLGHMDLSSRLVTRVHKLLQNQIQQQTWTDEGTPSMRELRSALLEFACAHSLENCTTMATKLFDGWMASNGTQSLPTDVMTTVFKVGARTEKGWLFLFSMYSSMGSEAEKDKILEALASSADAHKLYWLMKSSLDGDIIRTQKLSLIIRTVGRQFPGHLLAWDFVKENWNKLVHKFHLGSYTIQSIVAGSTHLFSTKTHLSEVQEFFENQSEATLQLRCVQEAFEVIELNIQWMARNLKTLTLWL", "assay": "Inhibition of IRAP activity (AVP degradation, rat epididymal fat pad microsomes, MALDI-MS)", "settings": "read-out: IRAP IC50, AVP 25 μM, 1 h at 37° C.", "units": {"IC50": "nM"}, "description": "(1) Inhibition of IRAP Activity\nResidual AVP was then determined by mass spectrometry (MALDI-MS).", "values": [
      {"smiles": "CC(C)C[C@H](N)[C@](O)(Cc1nccc2c1CCC(OCc1ccccc1)C2)C(=O)O", "note": "(some centres unmarked) [Example 80]", "IC50": 130},
      {"smiles": "COc1ccc(-c2ccnc(C[C@](O)(C(=O)O)[C@@H](N)CC(C)C)c2)cc1", "note": "[Example 57]", "IC50": 130},
      {"smiles": "CC(C)C[C@H](N)[C@](O)(Cc1cc(C2=CCOCC2)ccn1)C(=O)O", "note": "[Example 59]", "IC50": 110},
      {"smiles": "CC(C)C[C@H](N)[C@](O)(Cc1nccc2c1CCC1(CCCC1)C2)C(=O)O", "note": "[Example 19]", "IC50": 220},
      {"smiles": "CC(C)C[C@H](N)[C@](O)(Cc1cc(C2CCOCC2)ccn1)C(=O)O", "note": "[Example 78]", "IC50": 160}
    ]},
    {"tested_on": "water-loaded rats", "assay": "Antidiuresis test in water-loaded rats (oral administration)", "format": "in vivo, rat", "settings": "1 mg/kg oral (values marked *); water load 30 ml/kg 1 h after dosing; urine volume 1 h after water loading; vs vehicle control", "experimental": "(§1) When a test compound is a free base, one molar equivalent hydrochloric acid was added to dissolve the compound in the solvent. Rats in a vehicle control group were administered only with the vehicle. One hour after the administration, 30 ml/kg of distilled water was orally administered to the rats. One hour after the water loading, the urine volume was measured (urine volumes less than 0.3 ml were considered as 0 ml) to calculate the ratio of the urine volume (urinary excretion rate) to the amount of water load.", "values": [
      {"smiles": "CSC[C@H](N)[C@](O)(Cc1nccc2c1C[C@H](CCC1CC1)C2)C(=O)O", "note": "[Example 41]", "Inhibition of urination (%)": "69* %"},
      {"smiles": "CSC[C@H](N)[C@](O)(Cc1nccc2c1C[C@@H](CCC1CC1)C2)C(=O)O", "note": "[Example 44]", "Inhibition of urination (%)": "51* %"},
      {"smiles": "CCCSC[C@H](N)[C@](O)(Cc1nccc2c1C[C@H](CCC1CC1)C2)C(=O)O", "note": "[Example 42]", "Inhibition of urination (%)": "81* %"}
    ]},
    {"tested_on": "water-loaded rats", "assay": "Antidiuresis test in water-loaded rats (oral administration)", "format": "in vivo, rat", "settings": "3 mg/kg oral; water load 30 ml/kg 1 h after dosing; urine volume 1 h after water loading; vs vehicle control", "experimental": "as §1", "units": {"Inhibition of urination (%)": "%"}, "values": [
      {"smiles": "N[C@@H](CCC1CC1)[C@](O)(Cc1cc(CCCC2CC2)ccn1)C(=O)O", "note": "[Example 40]", "Inhibition of urination (%)": 100},
      {"smiles": "CC(C)C[C@H](N)[C@](O)(Cc1nccc2c1C[C@H](CCC1CC1)C2)C(=O)O", "note": "[Example 52]", "Inhibition of urination (%)": 90},
      {"smiles": "Cc1cnc(C[C@](O)(C(=O)O)[C@@H](N)COCCC2CC2)cc1CCCC1CC1", "note": "[Example 25]", "Inhibition of urination (%)": 88}
    ]}
  ]
}
